Assay results taken from patent US8927506B2, “Acetates of 2-deoxy monosaccharides with anticancer activity” (Board of Regents, The University of Texas System, priority 2008, dated 2015).

Assays:
[1] = test system: pancreatic Colo357-FG cell line; assay: In vitro activity in pancreatic Colo357-FG cell line; assay type: cell-based; conditions: COLO 357/FG; Colo357FG pancreatic cell line; concentration reducing cell viability to half
Source text: As used herein, reference to “IC50” is intended to refer to the concentration of a compound or composition that reduces the viability of cells to half the original level. In broader terms, IC50 can refer to half the maximal inhibitory concentration of a substance for inhibiting various biological processes.
In vitro activity in pancreatic Colo357-FG cell line is provided below in Table 1.

[2] = Preliminary biodistribution / pharmacokinetic study by oral gavage, 2-DG content in plasma and brain by LC/MS/MS; assay type: in vivo; conditions: CD-1 mice
Source text: Analytical methodologies (LC/MS/MS) were developed that are capable of quantifying these acetate sugars and the resulting liberation of 2-DG in various biomatrices (plasma and brain tissue). Using this analytical method preliminary biodistribution studies were undertaken in CD-1 mice to examine the pharmacokinetics of these novel agents.
Briefly, four animals per treatment group were given equivalent doses of either 2-DG, the compound of Example 6 (6-O-acetate of 2-DG) or the compound of Example 4 (4,6-di-O-acetate of 2-DG) by oral gavage using the same vehicle. Individual groups of animals were then sacrificed at 0.25, 0.5, 1, 2 and 4 hours following dose administration. From each animal plasma and brain tissues were harvested and then analyzed for 2-DG content by LC/mass spectrometry.

## CC(=O)OC1CC(O)C(O)C(CO)O1 [Example 1, 1-O-Acetyl-2-deoxy-D-glucose]
[1]
  IC50: 11.9 mM

## OCC1OC(O)CC(O)C1O (stereo not shown) [Example 2-DG, 2-deoxy-glucose, reference compound]
[1]
  IC50: 9.7 mM
[2]; at 2 hrs after administration
  highest attained brain tissue concentration of 2-DG: 12 μg/gm

## CC(=O)OCC1OC(OC(C)=O)CC(O)C1O (stereo not shown) [Example 3]
[1]
  IC50: 17.2 mM

## CC(=O)OCC1OC(O)CC(O)C1OC(C)=O [Example 4, 4,6-Di-O-acetyl-2-deoxy-D-glucose]
[1]
  IC50: 1.7 mM

## CC(=O)OCC1OC(O)CC(OC(C)=O)C1O (stereo not shown) [Example 5]
[1]
  IC50: 1.6 mM

## CC(=O)OCC1OC(O)CC(O)C1O [Example 6, 6-O-acetyl-2-deoxy-D-glucose]
[2]; brain
  duration of active concentrations of 2-DG at the site of action (brain) relative to 2-DG alone: more than twice as long
